In ChEMBL document CHEMBL5120927, “LEGO-Lipophosphonoxins: A Novel Approach in Designing Membrane Targeting Antimicrobials” (J Med Chem, 2022):

Assays:
Enterococcus faecalis = assay: Antibacterial activity against Enterococcus faecalis ATCC 29212 = CCM 4224 assessed as inhibition of bacterial growth incubated for 24 hrs by microdilution assay; type: functional
Staphylococcus aureus [1] = assay: Antibacterial activity against wild type Staphylococcus aureus 78/CF assessed as reduction in microbial growth incubated for 24 hrs by microdilution assay; type: functional
[2] = test system: Staphylococcus epidermidis; assay: Antibacterial activity against Staphylococcus epidermidis CCM 7221 assessed as inhibition of bacterial growth incubated for 24 hrs by microdilution assay; type: functional
Staphylococcus aureus [3] = assay: Antibacterial activity against wild type Staphylococcus aureus 4515/A assessed as reduction in microbial growth incubated for 24 hrs by microdilution assay; type: functional
Staphylococcus aureus [4] = assay: Antibacterial activity against wild type Staphylococcus aureus 4738/B assessed as reduction in microbial growth incubated for 24 hrs by microdilution assay; type: functional
Staphylococcus aureus [5] = assay: Antibacterial activity against wild type Staphylococcus aureus 4502/A assessed as reduction in microbial growth incubated for 24 hrs by microdilution assay; type: functional
Staphylococcus aureus [6] = assay: Antibacterial activity against wild type Staphylococcus aureus 77/CF assessed as reduction in microbial growth incubated for 24 hrs by microdilution assay; type: functional
[7] = Toxicity in rabbit assessed as pathological changes in necropsy at 10 to 200 mg/kg, po; type: organism-based, Oryctolagus cuniculus; conditions: in vivo, dose 10-200 mg/kg
Staphylococcus aureus [8] = assay: Antibacterial activity against wild type Staphylococcus aureus 4883/C assessed as reduction in microbial growth incubated for 24 hrs by microdilution assay; type: functional
Staphylococcus aureus [9] = assay: Antibacterial activity against wild type Staphylococcus aureus 4557/A assessed as reduction in microbial growth incubated for 24 hrs by microdilution assay; type: functional
[10] = Hemolytic activity in human RBC assessed as haemoglobin release measured after 3 hr; type: toxicity, cell-based, Erythrocyte; conditions: red blood cells (erythrocytes)
Staphylococcus aureus [11] = assay: microbe, parasite or virus in culture; conditions: 4862/C, 24 h
Description: Antibacterial activity against wild type Staphylococcus aureus 4862/C assessed as reduction in microbial growth incubated for 24 hrs by microdilution assay

Staphylococcus aureus [12] = assay: microbe, parasite or virus in culture; conditions: 4880/C, 24 h
Description: Antibacterial activity against wild type Staphylococcus aureus 4880/C assessed as reduction in microbial growth incubated for 24 hrs by microdilution assay

Staphylococcus aureus [13] = assay: Antibacterial activity against wild type Staphylococcus aureus 4788/B assessed as reduction in microbial growth incubated for 24 hrs by microdilution assay; type: functional
Staphylococcus aureus [14] = assay: microbe, parasite or virus in culture; conditions: 5017/C, 24 h
Description: Antibacterial activity against wild type Staphylococcus aureus 5017/C assessed as reduction in microbial growth incubated for 24 hrs by microdilution assay

Pseudomonas aeruginosa [15] = assay: Antibacterial activity against multidrug-resistant Pseudomonas aeruginosa assessed as reduction in microbial growth incubated for 24 hrs by microdilution assay; type: functional
Staphylococcus aureus [16] = assay: Antibacterial activity against […] Staphylococcus aureus 4461/A assessed as reduction in microbial growth incubated for 24 hrs by microdilution assay; type: functional
Pseudomonas aeruginosa [17] = assay: Antibacterial activity against Pseudomonas aeruginosa ATCC 27853 = CCM 3955 assessed as inhibition of bacterial growth incubated for 24 hrs by microdilution assay; type: functional
Staphylococcus aureus [18] = assay: Antibacterial activity against wild type Staphylococcus aureus 4904/C assessed as reduction in microbial growth incubated for 24 hrs by microdilution assay; type: functional
Escherichia coli [19] = assay: Antibacterial activity against Escherichia coli ATCC 25922 = CCM 3954 assessed as inhibition of bacterial growth incubated for 24 hrs in presence of BSA by microdilution assay; type: functional
[20] = Toxicity in rabbit assessed as clinical sign at 0.5 to 15 mg/kg, sc; type: organism-based, Oryctolagus cuniculus; conditions: in vivo, dose 0.5-15 mg/kg
Staphylococcus aureus [21] = assay: Antibacterial activity against wild type Staphylococcus aureus 4740/B assessed as reduction in microbial growth incubated for 24 hrs by microdilution assay; type: functional
Staphylococcus aureus [22] = assay: Antibacterial activity against methicillin resistant Staphylococcus aureus 4591/A assessed as reduction in microbial growth incubated for 24 hrs by microdilution assay; type: functional
Enterococcus faecium = assay: Antibacterial activity against vancomycin resistant Enterococcus faecium 419/ANA assessed as reduction in microbial growth incubated for 24 hrs by microdilution assay; type: functional
Staphylococcus aureus [23] = assay: Antibacterial activity against wild type Staphylococcus aureus 4968/C assessed as reduction in microbial growth incubated for 24 hrs by microdilution assay; type: functional
Staphylococcus aureus [24] = assay: Antibacterial activity against Staphylococcus aureus ATCC 29213 = CCM 4223 assessed as inhibition of bacterial growth incubated for 24 hrs by microdilution assay; type: functional
Staphylococcus aureus [25] = assay: Antibacterial activity against wild type Staphylococcus aureus 4566/A assessed as reduction in microbial growth incubated for 24 hrs by microdilution assay; type: functional
Staphylococcus aureus [26] = assay: Antibacterial activity against wild type Staphylococcus aureus 4717/B assessed as reduction in microbial growth incubated for 24 hrs by microdilution assay; type: functional
Staphylococcus aureus [27] = assay: Antibacterial activity against […] Staphylococcus aureus 4463/A assessed as reduction in microbial growth incubated for 24 hrs by microdilution assay; type: functional
Staphylococcus aureus [28] = assay: Antibacterial activity against […] Staphylococcus aureus 4460/A assessed as reduction in microbial growth incubated for 24 hrs by microdilution assay; type: functional
Escherichia coli [29] = assay: Antibacterial activity against Escherichia coli ATCC 25922 = CCM 3954 assessed as inhibition of bacterial growth incubated for 24 hrs by microdilution assay; type: functional
[30] = Gradient chromatographic hydrophobicity index of the compound at pH 3.7 by HPLC analysis; type: ADME
Staphylococcus aureus [31] = assay: Antibacterial activity against wild type Staphylococcus aureus 5079/C assessed as reduction in microbial growth incubated for 24 hrs by microdilution assay; type: functional
Staphylococcus aureus [32] = assay: Antibacterial activity against wild type Staphylococcus aureus 4504/A assessed as reduction in microbial growth incubated for 24 hrs by microdilution assay; type: functional
Escherichia coli [33] = assay: Antibacterial activity against multidrug-resistant Escherichia coli CE5556 expressing CTX-M-15 assessed as reduction in microbial growth incubated for 24 hrs by microdilution assay; type: functional
[34] = Toxicity in rabbit assessed as pathological changes in necropsy at 0.5 to 15 mg/kg, sc; type: organism-based, Oryctolagus cuniculus; conditions: in vivo, dose 0.5-15 mg/kg
Staphylococcus aureus [35] = assay: Antibacterial activity against wild type Staphylococcus aureus 4482/A assessed as reduction in microbial growth incubated for 24 hrs by microdilution assay; type: functional
[36] = Toxicity in rabbit assessed as clinical sign at 10 to 200 mg/kg, po; type: organism-based, Oryctolagus cuniculus; conditions: in vivo, dose 10-200 mg/kg
Staphylococcus aureus [37] = assay: Antibacterial activity against wild type Staphylococcus aureus 4679/B assessed as reduction in microbial growth incubated for 24 hrs by microdilution assay; type: functional
Staphylococcus aureus [38] = assay: Antibacterial activity against Staphylococcus aureus ATCC 29213 = CCM 4223 assessed as inhibition of bacterial growth incubated for 24 hrs in presence of BSA by microdilution assay; type: functional
Staphylococcus aureus [39] = assay: Antibacterial activity against wild type Staphylococcus aureus 4561/A assessed as reduction in microbial growth incubated for 24 hrs by microdilution assay; type: functional

In the case of CCCC/C=C\CCOP(=O)(CCN(CCCN)CCCN)OCCCCCOP(=O)(CCN(CCCN)CCCN)OCC/C=C\CCCC.Cl.Cl.Cl.Cl.Cl.Cl (stereo unspecified), the MIC (Enterococcus faecalis) is reported as 32 µg/mL, the MIC (Staphylococcus aureus [1]) is reported as 8 µg/mL and the MIC [2] is reported as 0.5 µg/mL. For the same compound, the MIC (Staphylococcus aureus [3]) was 4 µg/mL, the MIC (Staphylococcus aureus [4]) was 4 µg/mL and the MIC (Staphylococcus aureus [5]) was 4 µg/mL. For the same compound, the MIC (Staphylococcus aureus [6]) was 4 µg/mL, the Activity [7] was “Non-Toxic” and the MIC (Staphylococcus aureus [8]) was 2 µg/mL. For the same compound, the MIC (Staphylococcus aureus [9]) was 2 µg/mL, the HC50 at 3 h [10] was 70 µg/mL and the MIC (Staphylococcus aureus [11]) was 4 µg/mL. For the same compound, the MIC (Staphylococcus aureus [12]) was 4 µg/mL, the MIC (Staphylococcus aureus [13]) was 4 µg/mL and the MIC (Staphylococcus aureus [14]) was 4 µg/mL. For the same compound, the MIC (Pseudomonas aeruginosa [15]) was 32 µg/mL, the MIC (Staphylococcus aureus [16]) was 4 µg/mL and the MIC (Pseudomonas aeruginosa [17]) was 32 µg/mL. For the same compound, the MIC (Staphylococcus aureus [18]) was 4 µg/mL, the MIC (Escherichia coli [19]) was 4 µg/mL and the Activity [20] was “Non-Toxic”. The MIC (Staphylococcus aureus [21]) was 4 µg/mL, the MIC (Staphylococcus aureus [22]) was 2 µg/mL and the MIC (Enterococcus faecium) was 128 µg/mL. For the same compound, the MIC (Staphylococcus aureus [23]) was 4 µg/mL, the MIC (Staphylococcus aureus [24]) was 2 µg/mL and the MIC (Staphylococcus aureus [25]) was 4 µg/mL. The MIC (Staphylococcus aureus [26]) was 2 µg/mL, the MIC (Staphylococcus aureus [27]) was 4 µg/mL and the MIC (Staphylococcus aureus [28]) was 4 µg/mL. It also gave an MIC (Escherichia coli [29]) of 8 µg/mL, a CHI [30] of 33.3 and an MIC (Staphylococcus aureus [31]) of 4 µg/mL. The MIC (Staphylococcus aureus [32]) was 4 µg/mL, the MIC (Escherichia coli [33]) was 4 µg/mL and the Activity [34] was “Non-Toxic”. For the same compound, the MIC (Staphylococcus aureus [35]) was 4 µg/mL, the Activity [36] was “Non-Toxic” and the MIC (Staphylococcus aureus [37]) was 4 µg/mL. It also gave an MIC (Staphylococcus aureus [38]) of 8 µg/mL and an MIC (Staphylococcus aureus [39]) of 4 µg/mL.
